Data on six molecules can be found in ChEMBL document CHEMBL1155520, “Novel 8a-aza-8a-homoerythromycin--4''-(3-substituted-amino)propionates with broad spectrum antibacterial activity” (2010).

In brackets after ≈: the same amount, converted by molar mass.

Format in all cases: functional
In test [1] the test system is Streptococcus pneumoniae. Nature of the test: Antimicrobial activity against macrolide-resistant Streptococcus pneumoniae Ci137.
Test [2] has as its system Streptococcus pneumoniae. Nature of the test: Antimicrobial activity against inducible macrolide and constitutive lincosamide, streptogramin-resistant Streptococcus pneumoniae 4636.
Test [3] concerns Streptococcus pyogenes. Nature of the test: Antimicrobial activity against macrolide-sensitive Streptococcus pyogenes 3665.
Test [4] relates to Streptococcus pneumoniae. Nature of the test: Antimicrobial activity against macrolide-sensitive Streptococcus pneumoniae SPO 30.
Another test concerns Staphylococcus aureus. Kind of test: Antimicrobial activity against macrolide-sensitive Staphylococcus aureus ATCC 13709.
Test [5] has as its system Streptococcus pyogenes. Nature of the test: Antimicrobial activity against inducible macrolide, lincosamide, streptogramin-resistant Streptococcus pyogenes Finland 11.
A further test has as its system Haemophilus influenzae. Nature of the test: Antimicrobial activity against Haemophilus influenzae ATCC 49247.

With `CC[C@H]1OC(=O)[C@H](C)[C@@H](O[C@H]2C[C@@](C)(OC)[C@@H](OC(=O)CCN[C@H](C)c3ccc([N+](=O)[O-])cc3)[C@H](C)O2)[C@H](C)[C@@H](O[C@@H]2O[C@H](C)C[C@H](N(C)C)[C@H]2O)[C@](C)(OC)C[C@@H](C)NC(=O)[C@H](C)[C@@H](O)[C@]1(C)O`, the MIC in the test with Streptococcus pneumoniae [1] was 2 µg/mL (≈ 2.03 µM); with Streptococcus pneumoniae [2], above 32 µg/mL; with Streptococcus pyogenes [3] it was below 0.13 µg/mL; in the test with Streptococcus pneumoniae [4], below 0.13 µg/mL; against Staphylococcus aureus, 1 µg/mL (≈ 1.02 µM); against Streptococcus pyogenes [5], 4 µg/mL (≈ 4.07 µM). The molecule also yielded an MIC with Haemophilus influenzae of 32 µg/mL (≈ 32.5 µM).
Turning to `CC[C@H]1OC(=O)[C@H](C)[C@@H](O[C@H]2C[C@@](C)(OC)[C@@H](OC(=O)CCN[C@@H](C)C(=O)Nc3ccc([N+](=O)[O-])cc3)[C@H](C)O2)[C@H](C)[C@@H](O[C@@H]2O[C@H](C)C[C@H](N(C)C)[C@H]2O)[C@](C)(OC)C[C@@H](C)NC(=O)[C@H](C)[C@@H](O)[C@]1(C)O`, the MIC with Streptococcus pneumoniae [1] is 0.5 µg/mL (≈ 0.487 µM); against Streptococcus pneumoniae [2], 16 µg/mL (≈ 15.6 µM); in the test with Streptococcus pyogenes [3] it was below 0.13 µg/mL; in the test on Streptococcus pneumoniae [4], below 0.13 µg/mL; against Staphylococcus aureus, 0.5 µg/mL (≈ 0.487 µM); against Streptococcus pyogenes [5] it was 1 µg/mL (≈ 0.974 µM). In the test with Haemophilus influenzae, the MIC was determined as 2 µg/mL (≈ 1.95 µM).
As for `CC[C@H]1OC(=O)[C@H](C)[C@@H](O[C@H]2C[C@@](C)(OC)[C@@H](OC(=O)CCN3CCN(c4ccc([N+](=O)[O-])cc4)CC3)[C@H](C)O2)[C@H](C)[C@@H](O[C@@H]2O[C@H](C)C[C@H](N(C)C)[C@H]2O)[C@](C)(OC)C[C@@H](C)NC(=O)[C@H](C)[C@@H](O)[C@]1(C)O`, the MIC was 1 µg/mL (≈ 0.976 µM) with Streptococcus pneumoniae [1]; 8 µg/mL (≈ 7.81 µM) with Streptococcus pneumoniae [2]; below 0.13 µg/mL in the test on Streptococcus pyogenes [3]; below 0.13 µg/mL against Streptococcus pneumoniae [4]; 2 µg/mL (≈ 1.95 µM) with Staphylococcus aureus; 8 µg/mL (≈ 7.81 µM) in the test with Streptococcus pyogenes [5]. Further, in the test on Haemophilus influenzae, the MIC came out at 2 µg/mL (≈ 1.95 µM).
Turning to `CC[C@H]1OC(=O)[C@H](C)[C@@H](O[C@H]2C[C@@](C)(OC)[C@@H](OC(=O)CCNCC(=O)Nc3cnc4ccccc4c3)[C@H](C)O2)[C@H](C)[C@@H](O[C@@H]2O[C@H](C)C[C@H](N(C)C)[C@H]2O)[C@](C)(OC)C[C@@H](C)NC(=O)[C@H](C)[C@@H](O)[C@]1(C)O`, the MIC against Streptococcus pneumoniae [1] was 2 µg/mL (≈ 1.96 µM); against Streptococcus pneumoniae [2], above 32 µg/mL; against Streptococcus pyogenes [3] it was below 0.13 µg/mL; against Streptococcus pneumoniae [4], below 0.13 µg/mL; in the test on Staphylococcus aureus it was 2 µg/mL (≈ 1.96 µM); against Streptococcus pyogenes [5], 16 µg/mL (≈ 15.7 µM). The MIC in the test with Haemophilus influenzae was above 32 µg/mL.
Turning to `CC[C@H]1OC(=O)[C@H](C)[C@@H](O[C@H]2C[C@@](C)(OC)[C@@H](OC(=O)CCNCC(=O)Nc3cccc4ncccc34)[C@H](C)O2)[C@H](C)[C@@H](O[C@@H]2O[C@H](C)C[C@H](N(C)C)[C@H]2O)[C@](C)(OC)C[C@@H](C)NC(=O)[C@H](C)[C@@H](O)[C@]1(C)O`, the MIC in the test with Streptococcus pneumoniae [1] is 16 µg/mL (≈ 15.7 µM); with Streptococcus pneumoniae [2], above 32 µg/mL; against Streptococcus pyogenes [3] it was 0.25 µg/mL (≈ 0.246 µM); in the test with Streptococcus pneumoniae [4] it was below 0.13 µg/mL; against Staphylococcus aureus, 8 µg/mL (≈ 7.86 µM); in the test with Streptococcus pyogenes [5], 32 µg/mL (≈ 31.4 µM). This molecule also came in with an MIC against Haemophilus influenzae above 32 µg/mL.
On to `CC[C@H]1OC(=O)[C@H](C)[C@@H](O[C@H]2C[C@@](C)(OC)[C@@H](OC(=O)CCNCC(=O)Nc3ccc4cccnc4c3)[C@H](C)O2)[C@H](C)[C@@H](O[C@@H]2O[C@H](C)C[C@H](N(C)C)[C@H]2O)[C@](C)(OC)C[C@@H](C)NC(=O)[C@H](C)[C@@H](O)[C@]1(C)O`, for which the MIC against Streptococcus pneumoniae [1] is 4 µg/mL (≈ 3.93 µM); with Streptococcus pneumoniae [2], above 32 µg/mL; in the test with Streptococcus pyogenes [3], below 0.13 µg/mL; in the test on Streptococcus pneumoniae [4] it was below 0.13 µg/mL; against Staphylococcus aureus, 2 µg/mL (≈ 1.96 µM); against Streptococcus pyogenes [5], 16 µg/mL (≈ 15.7 µM). In the test with Haemophilus influenzae, this molecule gave an MIC above 32 µg/mL.
